Measured values from publication PMC5047629, “Synthesis, Pharmacological Profile and Docking Studies of New Sulfonamides Designed as Phosphodiesterase-4 Inhibitors” (PLoS ONE, 2016).

What was measured:
PDE4C = molecular target: T1, PDE4C (Homo sapiens, UniProt Q08493); test: PDE4C inhibition, IMAP fluorescence polarization protocol; format: biochemical; conditions: 1 μM; mean ± SEM, 3 experiments
T1 construct: purchased MDS PHARMA
Experimental: (§1) The enzymatic reactions were carried at room temperature in a 96-well black plate by co-incubating 25 μL of 200 nM FAM-cAMP (R7513), 5 μL of putative inhibitory compounds and 20 μL of the PDE4 isoform dissolved in assay buffer (R7364) for 1 h. All enzymes were obtained from human recombinant sources (MDS PHARMA), whereas the other reagents were purchased from Molecular Devices. […] PDE4 inhibitors were dissolved in dimethyl sulfoxide (DMSO) at a final concentration of 0.1%.
(§2) The inhibitory activities of the new sulfonamide derivatives were evaluated for their selectivity against the four isoforms of human PDE4, i.e. PDE4A, PDE4B, PDE4C, and PDE4D, using an IMAP-FP protocol.

PDE4B = molecular target: T2, PDE4B (Homo sapiens, UniProt Q07343); test: PDE4B inhibition, IMAP fluorescence polarization protocol; format: biochemical; conditions: 1 μM, mean ± SEM, 3 experiments; for inhibition at 1 µM: read-out: PDE4B1 inhibition
T2 construct: purchased MDS PHARMA
Experimental: as §1, §2

PDE4D = molecular target: T3, PDE4D (Homo sapiens, UniProt Q08499); test: PDE4D inhibition, IMAP fluorescence polarization protocol; format: biochemical; conditions: 1 μM, mean ± SEM, 3 experiments; for inhibition at 1 µM: read-out: PDE4D3 inhibition
T3 construct: purchased MDS PHARMA
Experimental: as §1, §2

PDE4A = molecular target: T4, PDE4A (Homo sapiens, UniProt P27815); test: PDE4A inhibition, IMAP fluorescence polarization protocol; format: biochemical; conditions: 1 μM; mean ± SEM, 3 experiments
T4 construct: purchased MDS PHARMA
Experimental: as §1, §2

T3 sequence (Q08499 1-673 isoform Q08499-2): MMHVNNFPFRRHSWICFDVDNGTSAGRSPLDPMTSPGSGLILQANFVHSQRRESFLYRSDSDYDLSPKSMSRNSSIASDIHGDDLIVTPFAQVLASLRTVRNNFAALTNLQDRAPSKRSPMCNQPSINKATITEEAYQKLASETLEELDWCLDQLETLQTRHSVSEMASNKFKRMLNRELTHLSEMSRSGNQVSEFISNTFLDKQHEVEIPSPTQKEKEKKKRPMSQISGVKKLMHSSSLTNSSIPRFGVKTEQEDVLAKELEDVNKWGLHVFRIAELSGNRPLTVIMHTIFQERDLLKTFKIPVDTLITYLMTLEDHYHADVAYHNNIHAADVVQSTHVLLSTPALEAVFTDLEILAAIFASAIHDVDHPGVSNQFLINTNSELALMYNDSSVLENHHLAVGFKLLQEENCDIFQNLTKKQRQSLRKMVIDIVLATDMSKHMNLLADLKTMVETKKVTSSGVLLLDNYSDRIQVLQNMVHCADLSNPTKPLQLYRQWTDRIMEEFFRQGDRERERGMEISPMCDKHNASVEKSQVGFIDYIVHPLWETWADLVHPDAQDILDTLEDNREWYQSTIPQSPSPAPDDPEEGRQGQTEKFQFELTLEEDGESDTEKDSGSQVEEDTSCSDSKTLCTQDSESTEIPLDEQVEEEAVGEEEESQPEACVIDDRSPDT
T2 sequence (Q07343 whole entry): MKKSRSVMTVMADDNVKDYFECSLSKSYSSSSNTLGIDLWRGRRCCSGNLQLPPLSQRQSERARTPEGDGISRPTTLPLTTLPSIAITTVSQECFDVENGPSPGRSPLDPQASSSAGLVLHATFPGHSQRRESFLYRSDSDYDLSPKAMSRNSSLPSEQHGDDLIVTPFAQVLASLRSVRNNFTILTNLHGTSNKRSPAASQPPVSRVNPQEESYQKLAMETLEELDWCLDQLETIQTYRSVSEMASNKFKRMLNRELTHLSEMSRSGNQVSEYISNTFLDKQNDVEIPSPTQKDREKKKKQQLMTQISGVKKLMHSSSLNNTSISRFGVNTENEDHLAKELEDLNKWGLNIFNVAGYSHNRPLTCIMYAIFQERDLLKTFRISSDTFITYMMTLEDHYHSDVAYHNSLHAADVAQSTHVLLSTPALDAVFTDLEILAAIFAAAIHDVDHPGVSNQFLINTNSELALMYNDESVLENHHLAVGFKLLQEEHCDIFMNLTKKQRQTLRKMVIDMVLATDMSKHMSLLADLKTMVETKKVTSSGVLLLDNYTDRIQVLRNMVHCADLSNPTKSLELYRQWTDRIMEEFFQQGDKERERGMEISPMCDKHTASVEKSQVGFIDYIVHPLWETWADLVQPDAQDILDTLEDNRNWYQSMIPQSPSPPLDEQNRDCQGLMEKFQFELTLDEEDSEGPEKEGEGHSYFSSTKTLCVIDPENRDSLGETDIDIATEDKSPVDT
T4 sequence (P27815 1-647 isoform P27815-4): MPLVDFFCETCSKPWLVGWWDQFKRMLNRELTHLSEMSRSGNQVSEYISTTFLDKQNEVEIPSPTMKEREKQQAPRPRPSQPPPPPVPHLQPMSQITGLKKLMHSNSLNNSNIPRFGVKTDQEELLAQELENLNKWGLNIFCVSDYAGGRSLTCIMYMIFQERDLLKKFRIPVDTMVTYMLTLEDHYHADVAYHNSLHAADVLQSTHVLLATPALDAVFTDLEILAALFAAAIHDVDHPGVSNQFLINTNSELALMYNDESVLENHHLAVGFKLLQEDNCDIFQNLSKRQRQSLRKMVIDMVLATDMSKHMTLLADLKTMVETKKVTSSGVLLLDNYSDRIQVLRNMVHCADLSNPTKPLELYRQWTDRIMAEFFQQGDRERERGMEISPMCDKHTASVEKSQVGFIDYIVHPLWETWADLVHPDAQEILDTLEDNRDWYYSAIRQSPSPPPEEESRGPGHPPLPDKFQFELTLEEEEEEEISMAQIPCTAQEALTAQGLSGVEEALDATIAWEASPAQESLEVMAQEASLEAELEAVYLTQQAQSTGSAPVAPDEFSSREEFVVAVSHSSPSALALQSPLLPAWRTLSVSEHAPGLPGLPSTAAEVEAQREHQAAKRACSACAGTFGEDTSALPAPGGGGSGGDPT
T1 sequence (Q08493 whole entry): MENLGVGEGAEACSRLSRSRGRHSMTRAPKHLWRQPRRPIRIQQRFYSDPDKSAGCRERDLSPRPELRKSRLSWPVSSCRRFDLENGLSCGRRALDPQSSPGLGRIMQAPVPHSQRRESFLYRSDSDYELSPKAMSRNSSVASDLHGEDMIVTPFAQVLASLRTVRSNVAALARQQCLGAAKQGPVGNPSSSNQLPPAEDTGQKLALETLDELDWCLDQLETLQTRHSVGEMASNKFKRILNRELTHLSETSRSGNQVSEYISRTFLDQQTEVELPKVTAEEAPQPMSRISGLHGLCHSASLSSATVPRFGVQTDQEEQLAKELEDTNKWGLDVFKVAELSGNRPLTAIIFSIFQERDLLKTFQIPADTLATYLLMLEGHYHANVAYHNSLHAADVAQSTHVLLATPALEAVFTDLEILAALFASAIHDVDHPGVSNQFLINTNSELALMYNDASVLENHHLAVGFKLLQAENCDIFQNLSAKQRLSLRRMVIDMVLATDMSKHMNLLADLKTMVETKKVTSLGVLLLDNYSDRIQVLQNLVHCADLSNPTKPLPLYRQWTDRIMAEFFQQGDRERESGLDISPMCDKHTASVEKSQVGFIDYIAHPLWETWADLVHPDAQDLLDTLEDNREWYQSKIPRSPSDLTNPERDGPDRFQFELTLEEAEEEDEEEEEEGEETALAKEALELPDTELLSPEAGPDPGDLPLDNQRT

| Structure (SMILES) | melting point | inhibition at 1 µM (PDE4C) | inhibition at 1 µM (PDE4B) | PDE4D3 inhibition (PDE4D) | inhibition at 1 µM (PDE4D) | PDE4A1A inhibition (PDE4A) | PDE4B1 inhibition (PDE4B) | PDE4C inhibition (PDE4C) |
| --- | --- | --- | --- | --- | --- | --- | --- | --- |
| COc1ccc(CCNS(C)(=O)=O)cc1OC [6j (LASSBio-985), N-(3,4-dimethoxyphenethyl)methanesulfonamide] | 73 to 74 °C | 16.3 ± 1% | 12.6 ± 2.1% | only a marginal activity | 62.9 ± 3.8% | Inactive | – | – |
| COc1ccc(CCN(Cc2ccccc2)S(=O)(=O)c2ccccc2)cc1OC [6h (LASSBio-984), N-(3,4-dimethoxyphenethyl)-N-benzylbenzenesulfonamide] | 82 to 84 °C | 9.8 ± 1.7% | 5 ± 0.6% | – | 14.3 ± 5.4% | Inactive | – | – |
| COc1ccc(CCN(C)S(C)(=O)=O)cc1OC [6k (LASSBio-1271), N-(3,4-dimethoxyphenethyl)-N-methylmethanesulfonamide] | 48 to 49 °C | – | – | Inactive | – | Inactive | Inactive | Inactive |
| COc1ccc(CCN(C)S(=O)(=O)c2ccccc2)cc1OC [6g (LASSBio-982), N-(3,4-dimethoxyphenethyl)-N-methylbenzenesulfonamide] | 67 to 68 °C | 4.1% | – | only a marginal activity | 37.4 ± 3.9% | Inactive | Inactive | – |
| C=CCN(CCc1ccc(OC)c(OC)c1)S(=O)(=O)c1ccccc1 [6i (LASSBio-983), N-(3,4-dimethoxyphenethyl)-N-allylbenzenesulfonamide] | 64 to 65 °C | 9.7 ± 0.8% | – | only a marginal activity | 67.6 ± 2.6% | Inactive | Inactive | – |

Next, values leading:

| melting point | inhibition at 1 µM (PDE4C) | inhibition at 1 µM (PDE4B) | PDE4D3 inhibition (PDE4D) | inhibition at 1 µM (PDE4D) | PDE4A1A inhibition (PDE4A) | PDE4B1 inhibition (PDE4B) | PDE4C inhibition (PDE4C) | Structure (SMILES) |
| --- | --- | --- | --- | --- | --- | --- | --- | --- |
| 86 to 88 °C | 9.7 ± 3.3% | – | – | 19.3 ± 4% | Inactive | Inactive | – | COc1ccc(CCNS(=O)(=O)c2ccccc2)cc1OC [6f (LASSBio-965), N-(3,4-dimethoxyphenethyl)benzenesulfonamide] |
| 74 to 76 °C | 6.3 ± 4.1% | – | only a marginal activity | 40.4 ± 4.5% | Inactive | Inactive | – | C=CCN(CCc1ccc(OC)c(OC)c1)S(=O)(=O)c1cc2c(cc1C)OCO2 [6d (LASSBio-961), N-(3,4-dimethoxyphenethyl)-N-allyl-6-methylbenzo[d][1, 3]dioxole-5-sulfonamide] |
| 119 to 121 °C | 2 ± 0.8% | – | – | 21.6 ± 4.5% | Inactive | Inactive | – | COc1ccc(CCN(Cc2ccccc2)S(=O)(=O)c2cc3c(cc2C)OCO3)cc1OC [6c (LASSBio-960), N-(3,4-dimethoxyphenethyl)-N-benzyl-6-methylbenzo[d][1, 3]dioxole-5-sulfonamide] |
| 88 to 89 °C | 3.9 ± 2.9% | – | only a marginal activity | 33.5 ± 4.5% | Inactive | Inactive | – | Cc1cc2c(cc1S(=O)(=O)NCCc1ccccc1)OCO2 [5 (LASSBio-964), 6-methyl-N-phenethylbenzo[d][1, 3]dioxole-5-sulfonamide] |
| – | 7.6 ± 1.1% | – | – | 23.6 ± 2.2% | Inactive | Inactive | – | COc1ccc(CCN(C2CCCC2)S(=O)(=O)c2cc3c(cc2C)OCO3)cc1OC [6e (LASSBio-962), N-(3,4-dimethoxyphenethyl)-N-cyclopentyl-6-methylbenzo[d][1, 3]dioxole-5-sulfonamide] |
| 92 to 94 °C | 5.6 ± 1% | – | only a marginal activity | 42.4 ± 3.5% | Inactive | Inactive | – | COc1ccc(CCN(C)S(=O)(=O)c2cc3c(cc2C)OCO3)cc1OC [6b (LASSBio-959), N-(3,4-dimethoxyphenethyl)-N-6-dimethylbenzo[d][1, 3]dioxole-5-sulfonamide] |
